Laboratory results as given in patent publication US10166177B2, “Silk protein fragment compositions and articles manufactured therefrom” (Silk, Inc., priority 2013, dated 2019).

Assays:
Assay type in all cases: physicochemical
[1] = Gel formation with vitamin C derivatives in 2% silk solution; settings: 100 mg of vitamin C derivative in 15 mL of 2% silk solution
Description: The Tables in FIGS. 89A-89B summarize embodiments of gels of the present disclosure. Ascorbic acid-2-glucoside was the most successful vitamin C derivative at gel formation with gel being formed in a 2% silk solution in 3 days. […] In all cases 100 mg of vitamin C derivative was mixed in 15 mL of 2% silk solution, and all gels had the same appearance as gels created with ascorbic acid.
Gels were also cast with combinations of two vitamin C options. In each case, at least one of the vitamin C options was known to cause gelation (L-ascorbic acid or ascorbic acid-2-glucoside). All combination gels were able to gel at 1% total vitamin C additive concentration. […] Without wishing to be bound by theory, it appears there is a relationship between vitamin C concentration, silk concentration, and gelation. An increase in vitamin C at a given concentration of silk will result in a longer time to gelation or inhibit gelation. This may be due to the vitamin C molecule physically blocking interaction between silk protein fragments or cross-linking of silk protein. Modification to pH may allow additional concentrations of vitamin C and derivatives thereof to be added.

[2] = Dissolution of vitamin C derivative in aqueous silk solution
Text: Ascorbyl tetraisopalmitate is a highly viscous, oil soluble liquid that might need the help of an emulsifier to possible dissolve in aqueous silk solution.

[3] = HPLC chromatograms of vitamin C samples (degradation products); settings: after 1 hour at ambient conditions without chemical stabilization
Description: FIGS. 36A and 36B show HPLC chromatograms from samples comprising vitamin C. […] No degradation products were visible.
FIGS. 36A and 36B show two HPLC chromatograms from samples comprising vitamin C. […] No degradation products were visible. FIG. 59 is a table summarizing the vitamin C concentration in silk protein fragment-films (2% silk films air dried at RT) of the present disclosure. In FIG. 59 processing conditions included 100° C. extraction for 20 min, RT rinse, LiBr in 60° C. oven for 4-6 hours. FIG. 60 is a table summarizing the stability of vitamin C in chemically stabilized solutions. FIGS. 89A-89B are tables summarizing vitamin C stability in SPF gels without chemical stabilizers as compared to chemically stabilized vitamin C in competitive anti-aging skincare products. […] Without wishing to be bound by theory, it appears there is a relationship between vitamin C concentration, silk concentration, and gelation. An increase in vitamin C at a given concentration of silk will result in a longer time to gelation or inhibit gelation. This may be due to the vitamin C molecule physically blocking interaction between silk protein fragments or cross-linking of silk protein.

time to gel formation [1]	Structure (SMILES)	other results
28 days	O=C1O[C@H]([C@@H](O)CO)C([O-])=C1OP(=O)([O-])[O-].[Na+].[Na+].[Na+] [Sodium ascorbyl phosphate from DSM, Sodium ascorbyl phosphate]	
	CCCCCCCCC(CCCCCC)C(=O)OC[C@H](OC(=O)C(CCCCCC)CCCCCCCC)[C@H]1OC(=O)C(OC(=O)C(CCCCCC)CCCCCCCC)=C1OC(=O)C(CCCCCC)CCCCCCCC (some centres unmarked) [Ascorbyl tetraisopalmitate]	ability to dissolve or be dispersed in aqueous silk solution [2]: unable to dissolve or be dispersed
	O=C1O[C@H]([C@@H](O)CO)C(O)=C1O [vitamin C, L-ascorbic acid]	vitamin C degradation products (HPLC) [3]: degradation products are visible
failed to create a gel	O=C1O[C@H]([C@@H](O)CO)C([O-])=C1OP(=O)([O-])[O-].[Na+].[Na+].[Na+] [Sodium Ascorbyl Phosphate (Aromantic), Sodium Ascorbyl Phosphate]	
3 days	O=C1O[C@H]([C@@H](O)CO)C(O)=C1O[C@H]1O[C@H](CO)[C@@H](O)[C@H](O)[C@H]1O [Ascorbic acid-2-glucoside]	
